Where “and” joins values, the source holds several entries; their conditions need not be identical. Equal values may be shown once.
Experiments:
[1] = calcium carbonate scale inhibition (conductometric titration, supersaturation ratio Sr)
Description: To a 100 mL beaker were added 60 mL of HPLC-grade water and 3 mL of 0.1 M calcium chloride. An appropriate amount (0.5-4 mL) of an aqueous solution of the inhibitor compound of Formula (I) to be tested was then added. The solution was magnetically stirred at a constant speed for all experiments. The sample was then titrated with 0.1 M sodium carbonate. After addition of each 0.2 mL aliquot of sodium carbonate titrant, the solution was mixed for 1 min and then the conductivity of the solution measured.
As titrant is added the conductivity increases in a linear fashion. When the supersaturation point is reached, the conductivity decreases and precipitation begins. This is considered the endpoint of the titration. The resulting titration endpoint volumes are used to calculate a relative supersaturation ratio (Sr). This is the ratio of the supersaturation of calcium carbonate in the presence of the compound of Formula (I) being tested to the value of the supersaturation of water without inhibitor (distilled water plus 3 mL of 0.1 M calcium chloride). Thus, compounds with Sr>1 are displaying scale inhibition.
The scale inhibition performance of various compounds of Formula (I) and comparative compounds were compared at the same molar concentration. These compounds were tested at 60 μM concentration except where noted otherwise. Compound numbers are from Table 1.

[2] = copper corrosion inhibition, ASTM G31-72 coupon weight loss
Description: (§1) Corrosion inhibition studies of various compounds of Formula (I) were conducted according to ASTM method G31-72 (2004). The following is the general test method.
(§2) Aqueous solutions of the test compound (900 mL) were prepared with city water for mild steel corrosion studies or a dilute sea salt solution (1000 ppm in deionized water) for copper corrosion studies. The solutions were magnetically stirred at a constant rate in a 1 L beaker and three coupons of either mild steel or copper were suspended in each beaker. After 5 days (steel) or 7 days (copper), the coupons were removed and cleaned according to ASTM method G1-03. Average weight loss was determined for each set of three coupons and then converted to corrosion rate in terms of mils per year (mpy).
The first test of copper corrosion inhibition compared Compound A with Compound 13 (from Table 1), 2-hydroxypropane-1,2,3-tricarboxylic acid, and a commercial inhibitor, Na-TAI.

[3] = mild steel corrosion inhibition, ASTM G31-72 coupon weight loss
Description: as §1, §2
These tests compare the corrosion inhibition of compounds of Formula (I), namely from Table 1, in the first set of comparisons, Compound A with Compound 13, and Compound B with Compound 1, and with 2-hydroxypropane-1,2,3-tricarboxylic acid. Thus five samples were tested relative to a blank and a standard, (1-hydroxyethan-1,1-diyl)bis(phosphonic acid), after 5 days at 26 μM concentrations. […] Concentrations were 26 μM.
Additional mild steel corrosion tests were performed at 130 μM concentration of compounds of Formula (I) and comparative compounds for 5 days. The next test compared the corrosion inhibition of Compound 8 with 2,3-dihydroxybutanedioic acid and Compound B, and Compound 4 with (1-hydroxyethan-1,1-diyl)bis(phosphonic acid) and Compound B. Also included was Compound 1 for reference. Concentrations in this set were 130 μM.

[4] = 5 days, 130 μM, Table 4 (blank 24 mpy)
[5] = 130 μM, Table 5 (blank 12.5 mpy)

## Salt of Oxyamine (II) and Butanedioic acid salt (1:1 molar stoichiometry) [Compound 10]
[1]; 60 μM
  Sr (supersaturation ratio): 1.0

## O=C(O)CCC(CC(=O)O)(C(=O)O)P(=O)(O)O (stereo not drawn) [2-phosphonobutane-1,2,4-tricarboxylic acid]
[1]; 5.9 μM
  Sr (supersaturation ratio): 3.0

## [Na+].c1ccc2[n-]nnc2c1 [Na-TAI, sodium salt of 1,2,3-triaza-1H-indene]
[2]; 7 days, 17 μM, Table 6
  Inhibition relative to blank: 71%

## CC(O)(P(=O)(O)O)P(=O)(O)O.CCCCCCCCCCOCCCN [Compound 4, Salt of Oxyamine (II) and (1-Hydroxyethan-1,1-diyl)bis(phosphonic acid) (1:1 Molar Stoichiometry)]
[1]; 60 μM
  Sr (supersaturation ratio): 4.3
[3]; [4]
  Inhibition relative to blank: 68%

## Salt of Oxyamine (II) and Ethanedioic acid salt (1:1 molar stoichiometry [Compound 2]
[3]; [5]
  Inhibition relative to blank: −21%

## O=C(O)CC(O)(CC(=O)O)C(=O)O [2-hydroxypropane-1,2,3-tricarboxylic acid]
[1]; 63 μM
  Sr (supersaturation ratio): 1.2
[3]; 5 days, 26 μM, Table 3, 26 µM
  Inhibition relative to blank: 9.8% and 10%
[2]; 42 μM, Table 7
  Inhibition relative to blank: 9%
[2]; 7 days, 17 μM, Table 6
  Inhibition relative to blank: 0%

## O=C(O)C(=O)O [Ethanedioic acid]
[3]; [5]
  Inhibition relative to blank: −16%

## O=C(O)C(O)C(O)C(=O)O (stereo not drawn) [2,3-Dihydroxybutanedioic acid]
[1]; 60 μM
  Sr (supersaturation ratio): 1.0
[3]; [4]
  Inhibition relative to blank: 20%

## O=C(O)C(O)C(O)C(O)C(O)C(=O)O (stereo not drawn) [2,3,4,5-tetrahydroxyhexanedioic acid]
[1]; 60 μM
  Sr (supersaturation ratio): 1.4

## Salt of Oxyamine (II) and 2,3-Dihydroxybutanedioic acid salt (1:1 molar stoichiometry) [Compound 8]
[1]; 60 μM
  Sr (supersaturation ratio): 1.3
[1]; 120 μM
  Sr (supersaturation ratio): 1.5
[3]; [4]
  Inhibition relative to blank: 44%

## Salt of Oxyamine (II) and Trihydroxidooxidophosphorus salt (1:1 molar stoichiometry) [Compound 3]
[3]; [5]
  Inhibition relative to blank: 55%

## CC(O)(P(=O)(O)O)P(=O)(O)O [(1-hydroxyethan-1,1-diyl)bis(phosphonic acid)]
[1]; 45 μM
  Sr (supersaturation ratio): 2.5
[1]; 60 μM
  Sr (supersaturation ratio): 4.4
[3]; 5 days, 26 μM, Table 3
  Inhibition relative to blank: 36%
[3]; [4]
  Inhibition relative to blank: 62%

## O=P(O)(O)O [Trihydroxidooxidophosphorus]
[3]; [5]
  Inhibition relative to blank: 40%

## O=C(O)CCC(=O)O [Butanedioic acid]
[1]; 60 μM
  Sr (supersaturation ratio): 1.0

Reference: patent US9919941B2, “Multiple uses of amine salts for industrial water treatment” (AMSA, Inc., priority 2012, dated 2018)
